Measured values published in patent US9018208B2, “Heterocycles as potassium channel modulators” (Icagen Inc., priority 2007, dated 2015).
Where two headings read alike, the source gives them in different places.

System: SH-SY5Y M-currents (KCNQ2, KCNQ3 and KCNQ5)
Assay: SH-SY5Y native cell line FLIPR assay (voltage-sensitive dye DiBAC)
Assay type: cell-based, mouse neuroblastoma, rat glioma hybrid cell line
Summary of the method: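 Response is peak DiBAC fluorescence change, normalised to the maximum from a positive control agent, sampled every 30 s over 25 min. Before compound addition, SH-SY5Y cells differentiated with PGE1 plus isomethylbutylxanthine were dye-loaded for 1 h in EBSS with […] DiBAC.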

[1] = SH-SY5Y native cell line, FLIPR assay (Table 3), read-out: SH-SY5Y EC50
[2] = FLIPR assay, SH-SY5Y native cell line, Table 2, read-out: SH-SY5Y EC50
[3] = FLIPR assay, SH-SY5Y native cell line, Table 1, read-out: SH-SY5Y EC50

| EC50 [2] | SMILES | further results |
| --- | --- | --- |
| – | Cc1ccc2nc(NC(=O)CC(C)C(F)(F)F)c(-c3cc(C(F)(F)F)ccn3)n2n1 (centres unmarked) [Compound 396, 4,4,4-trifluoro-3-methyl-N-(6-methyl-3-(4-(trifluoromethyl)pyridin-2-yl)imidazo[1,2-b]pyridazin-2-yl)butanamide] | EC50 [1]: 3000 to 10000 nM |
| – | CC(C)(C)CC(=O)Nc1nc2ccc(F)cn2c1-c1cncc(C(F)(F)F)c1 [Compound 355, N-(6-fluoro-3-(5-(trifluoromethyl)pyridin-3-yl)imidazo[1,2-a]pyridin-2-yl)-3,3-dimethylbutanamide] | EC50 [1]: 3000 to 10000 nM |
| – | CC(C)(C)CC(=O)Nc1nc2ccc(F)cn2c1-c1cc(Cl)ccn1 [Compound 364, N-(3-(4-chloropyridin-2-yl)-6-fluoroimidazo[1,2-a]pyridin-2-yl)-3,3-dimethylbutanamide] | EC50 [1]: 500 to 3000 nM |
| < 500 nM | O=C(Nc1nc2ccc(F)cn2c1-c1ccc(OC(F)(F)F)cc1)C1CCC(F)(F)CC1 [Compound 326, 4,4-difluoro-N-(6-fluoro-3-(4-(trifluoromethoxy)phenyl)imidazo[1,2-a]pyridin-2-yl)cyclohexanecarboxamide] | – |
| – | O=C(Nc1nc2ccccn2c1-c1cc(C(F)(F)F)ccn1)C1CCC(F)(F)CC1 [Compound 411, 4,4-difluoro-N-(3-(4-(trifluoromethyl)pyridin-2-yl)imidazo[1,2-a]pyridin-2-yl)cyclohexanecarboxamide] | EC50 [1]: < 500 nM |
| < 500 nM | O=C(CC1CCCCC1)Nc1nc2ccc(F)cn2c1-c1ccc(C(F)(F)F)cc1 [Compound 157, 2-cyclohexyl-N-(6-fluoro-3-(4-(trifluoromethyl)phenyl)imidazo[1,2-a]pyridin-2-yl)acetamide] | – |
| 500 to 3000 nM | CC(C)(C)CC(=O)Nc1nc2ncc(F)cn2c1-c1cccc(OC(F)(F)F)c1 [Compound 333, N-(6-fluoro-3-(3-(trifluoromethoxy)phenyl)imidazo[1,2-a]pyrimidin-2-yl)-3,3-dimethylbutanamide] | – |
| 3000 to 10000 nM | CC(C)(C)CC(=O)Nc1nc2ncccn2c1-c1cccc(OC(F)(F)F)c1 [Compound 323, 3,3-dimethyl-N-(3-(3-(trifluoromethoxy)phenyl)imidazo[1,2-a]pyrimidin-2-yl)butanamide] | – |
| < 500 nM | O=C(CC1CCC1)Nc1nc2ccc(F)cn2c1-c1ccc(C(F)(F)F)cc1 [Compound 185, 2-cyclobutyl-N-(6-fluoro-3-(4-(trifluoromethyl)phenyl)imidazo[1,2-a]pyridin-2-yl)acetamide] | – |
| 3000 to 10000 nM | CC(=O)O[C@H](C(=O)Nc1nc2ccc(F)cn2c1-c1ccc(C(F)(F)F)cc1)C(C)(C)C [Compound 340, (S)-1-(6-fluoro-3-(4-(trifluoromethyl)phenyl)imidazo[1,2-a]pyridin-2-ylamino)-3,3-dimethyl-1-oxobutan-2-yl acetate] | – |
| < 500 nM | O=C(Cc1ccccc1)Nc1nc2ccc(F)cn2c1-c1ccc(C(F)(F)F)cc1 [Compound 127, N-(6-fluoro-3-(4-(trifluoromethyl)phenyl)imidazo[1,2-a]pyridin-2-yl)-2-phenylacetamide] | – |
| 3000 to 10000 nM | O=C(Cc1c(F)cccc1Cl)Nc1nc2ccc(F)cn2c1-c1ccc(F)cc1 [Compound 141, 2-(2-chloro-6-fluorophenyl)-N-(6-fluoro-3-(4-fluorophenyl)imidazo[1,2-a]pyridin-2-yl)acetamide] | – |
| 3000 to 10000 nM | O=C(Nc1nc2ccc(F)cn2c1-c1ccc(OC(F)(F)F)cc1)[C@H]1CCCO1 [Compound 243, (R)—N-(6-fluoro-3-(4-(trifluoromethoxy)phenyl)imidazo[1,2-a]pyridin-2-yl)tetrahydrofuran-2-carboxamide] | – |
| < 500 nM | O=C(CC1CCC1)Nc1nc2ccc(F)cn2c1-c1cccc(C(F)(F)F)c1 [Compound 270, 2-cyclobutyl-N-(6-fluoro-3-(3-(trifluoromethyl)phenyl)imidazo[1,2-a]pyridin-2-yl)acetamide] | – |
| < 500 nM | Cc1ccc2nc(NC(=O)Cc3ccccc3)c(-c3ccc(F)cc3)n2c1 [Compound 166, N-(3-(4-fluorophenyl)-6-methylimidazo[1,2-a]pyridin-2-yl)-2-phenylacetamide] | – |
| 3000 to 10000 nM | CC(CC(=O)Nc1nc2ncccn2c1-c1cccc(OC(F)(F)F)c1)C(F)(F)F (centres unmarked) [Compound 325, 4,4,4-trifluoro-3-methyl-N-(3-(3-(trifluoromethoxy)phenyl)imidazo[1,2-a]pyrimidin-2-yl)butanamide] | – |
| < 500 nM | CC1(CC(=O)Nc2nc3ccc(F)cn3c2-c2cccc(Cl)c2)CCCC1 [Compound 286, N-(3-(3-chlorophenyl)-6-fluoroimidazo[1,2-a]pyridin-2-yl)-2-(1-methylcyclopentyl)acetamide] | – |
| 3000 to 10000 nM | CC(C)(C)CC(=O)Nc1nc2ncc(Cl)cn2c1-c1ccc(C(F)(F)F)cc1 [Compound 322, N-(6-chloro-3-(4-(trifluoromethyl)phenyl)imidazo[1,2-a]pyrimidin-2-yl)-3,3-dimethylbutanamide] | – |
| 500 to 3000 nM | CC(C)(C)CC(=O)Nc1nc2cc(C(F)(F)F)ccn2c1-c1ccc(F)cc1 [Compound 113, N-(3-(4-fluorophenyl)-7-(trifluoromethyl)imidazo[1,2-a]pyridin-2-yl)-3,3-dimethylbutanamide] | – |

| EC50 [2] | SMILES | further results |
| --- | --- | --- |
| < 500 nM | Cc1ccc2nc(NC(=O)Cc3ccc(C(F)(F)F)cc3)c(-c3ccc(F)cc3)n2c1 [Compound 186, N-(3-(4-fluorophenyl)-6-methylimidazo[1,2-a]pyridin-2-yl)-2-(4-(trifluoromethyl)phenyl)acetamide] | – |
| – | Cc1ccc2nc(NC(=O)CC(C)(C)C)c(C3CC3)n2n1 [Compound 74, N-(3-cyclopropyl-6-methylimidazo[1,2-b]pyridazin-2-yl)-3,3-dimethylbutanamide] | EC50 [3]: 500 to 3000 nM |
| 500 to 3000 nM | CC(C)C(C)C(=O)Nc1nc2ccc(F)cn2c1-c1ccc(C(F)(F)F)cc1 (centres unmarked) [Compound 184, N-(6-fluoro-3-(4-(trifluoromethyl)phenyl)imidazo[1,2-a]pyridin-2-yl)-2,3-dimethylbutanamide] | – |
| < 500 nM | CC(C)C(C)C(=O)Nc1nc2ccc(F)cn2c1-c1ccc(OC(F)(F)F)cc1 (centres unmarked) [Compound 249, N-(6-fluoro-3-(4-(trifluoromethoxy)phenyl)imidazo[1,2-a]pyridin-2-yl)-2,3-dimethylbutanamide] | – |
| < 500 nM | O=C(Cc1ccc(F)cc1)Nc1nc2ccc(F)cn2c1-c1ccc(OC(F)(F)F)cc1 [Compound 154, N-(6-fluoro-3-(4-(trifluoromethoxy)phenyl)imidazo[1,2-a]pyridin-2-yl)-2-(4-fluorophenyl)acetamide] | – |
| – | CC(C)(C)Cc1c(NC(=O)C2CCC(F)(F)CC2)nc2ccccn12 [Compound 87, 4,4-difluoro-N-(3-neopentylimidazo[1,2-a]pyridin-2-yl)cyclohexanecarboxamide] | EC50 [3]: 500 to 3000 nM |
| 3000 to 10000 nM | CC(C)(C)CC(=O)Nc1nc2ncc(F)cn2c1-c1cccc(C(F)(F)F)c1 [Compound 332, N-(6-fluoro-3-(3-(trifluoromethyl)phenyl)imidazo[1,2-a]pyrimidin-2-yl)-3,3-dimethylbutanamide] | – |
| < 500 nM | O=C(Cc1ccc(F)cc1)Nc1nc2ccccn2c1-c1ccc(C(F)(F)F)cc1 [Compound 204, 2-(4-fluorophenyl)-N-(3-(4-(trifluoromethyl)phenyl)imidazo[1,2-a]pyridin-2-yl)acetamide] | – |
| – | O=C(Cc1ccc(F)cc1)Nc1nc2ccc(F)cn2c1Cc1ccc(F)cc1 [Compound 18, N-(6-fluoro-3-(4-fluorobenzyl)imidazo[1,2-a]pyridin-2-yl)-2-(4-fluorophenyl)acetamide] | EC50 [3]: < 500 nM |
| 500 to 3000 nM | CC(C)(C)CC(=O)Nc1nc2ccc(F)cn2c1-c1ccccc1Cl [Compound 158, N-(3-(2-chlorophenyl)-6-fluoroimidazo[1,2-a]pyridin-2-yl)-3,3-dimethylbutanamide] | – |
| < 500 nM | Cc1ccc2nc(NC(=O)CC(C)(C)C)c(-c3cccc(OC(F)(F)F)c3)n2n1 [Compound 305, 3,3-dimethyl-N-(6-methyl-3-(3-(trifluoromethoxy)phenyl)imidazo[1,2-b]pyridazin-2-yl)butanamide] | – |
| 500 to 3000 nM | O=C(Cc1ccccc1)Nc1nc2cc(C(F)(F)F)ccn2c1-c1ccc(F)cc1F [Compound 124, N-(3-(2,4-difluorophenyl)-7-(trifluoromethyl)imidazo[1,2-a]pyridin-2-yl)-2-phenyl acetamide] | – |
| 500 to 3000 nM | O=C(CCC1CC1)Nc1nc2ccc(F)cn2c1-c1ccc(OC(F)(F)F)cc1 [Compound 172, 3-cyclopropyl-N-(6-fluoro-3-(4-(trifluoromethoxy)phenyl)imidazo[1,2-a]pyridin-2-yl)propanamide] | – |
| 3000 to 10000 nM | CC(C)(CO)CC(=O)Nc1nc2ccc(F)cn2c1-c1ccc(C(F)(F)F)cc1 [Compound 190, N-(6-fluoro-3-(4-(trifluoromethyl)phenyl)imidazo[1,2-a]pyridin-2-yl)-4-hydroxy-3,3-dimethylbutanamide] | – |
| < 500 nM | CC(C)(C)CC(=O)Nc1nc2ccc(F)cn2c1-c1cccc(Cl)c1 [Compound 149, N-(3-(3-chlorophenyl)-6-fluoroimidazo[1,2-a]pyridin-2-yl)-3,3-dimethylbutanamide] | – |
| 3000 to 10000 nM | O=C(Nc1nc2ccc(F)cn2c1-c1ccc(OC(F)(F)F)cc1)[C@@H]1CCCO1 [Compound 244, (S)—N-(6-fluoro-3-(4-(trifluoromethoxy)phenyl)imidazo[1,2-a]pyridin-2-yl)tetrahydrofuran-2-carboxamide] | – |
| – | Cc1c(NC(=O)CC(F)(F)F)nc2ccc(F)cn12 [Compound 424, 3,3,3-trifluoro-N-(6-fluoro-3-methylimidazo[1,2-a]pyridin-2-yl)propanamide] | EC50 (FLIPR assay, SH-SY5Y native cell line, Table 5, read-out: SH-SY5Y EC50): 3000 to 10000 nM; EC50 (read-out: SH-SY5Y_EC50): 10000 nM |
| – | CC(C)(C)CC(=O)Nc1nc2ccccn2c1-c1cc(C(F)(F)F)ccn1 [Compound 404, 3,3-dimethyl-N-(3-(4-(trifluoromethyl)pyridin-2-yl)imidazo[1,2-a]pyridin-2-yl)butanamide] | EC50 [1]: 500 to 3000 nM |
